pIC50: −log10 of the molar value.
System: 439559-082-T-J2-PDC spheroid viability
Experiment: Anticancer human tumor 439559-082-T-J2-PDC patient-derived colon adenocarcinoma cell line growth inhibition [POLQ]
Details: spheroids with HUVEC and MSC; for pIC50: curve of first compound; for viability, T/C: stronger effect = lower value
Method in brief: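 PDC + HUVEC + MSC complex spheroids; POLQ inhibitors ± partner drugs; top conc. at/near clinical Cmax, else 10 microM (SN-38 1 microM), half-log dilutions; 37 degrees C, 5% CO2.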

[1] = second compound 0.0316 µM, first compound 0.00316 µM
[2] = second compound 0.0316 µM, first compound 0.01 µM
[3] = second compound 0.0316 µM, first compound 0.0316 µM
[4] = second compound 0.0316 µM, first compound 0.1 µM
[5] = second compound 0.1 µM, first compound 0.00316 µM
[6] = second compound 0.1 µM, first compound 0.01 µM
[7] = second compound 0.1 µM, first compound 0.0316 µM
[8] = second compound 0.1 µM, first compound 0.1 µM
[9] = second compound 0.316 µM, first compound 0.00316 µM
[10] = second compound 0.316 µM, first compound 0.01 µM
[11] = second compound 0.316 µM, first compound 0.0316 µM
[12] = second compound 0.316 µM, first compound 0.1 µM
[13] = second compound 1 µM, first compound 0.00316 µM
[14] = second compound 1 µM, first compound 0.01 µM
[15] = second compound 1 µM, first compound 0.0316 µM
[16] = second compound 1 µM, first compound 0.1 µM
[17] = second compound 3.16 µM, first compound 0.00316 µM
[18] = second compound 3.16 µM, first compound 0.01 µM
[19] = second compound 3.16 µM, first compound 0.0316 µM
[20] = second compound 3.16 µM, first compound 0.1 µM
[21] = second compound 10 µM, first compound 0.00316 µM
[22] = second compound 10 µM, first compound 0.01 µM
[23] = second compound 10 µM, first compound 0.0316 µM
[24] = second compound 10 µM, first compound 0.1 µM
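Also: spheroids exposed to compounds for seven days before readout.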
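For viability, T/C in this document: 100% = DMSO vehicle control viability.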

## C=CCn1c(=O)c2cnc(Nc3ccc(N4CCN(C)CC4)cc3)nc2n1-c1cccc(C(C)(C)O)n1 + Cc1cccc(N(C)C(=O)C2C(O)CCN2c2nc(C)cc(C(F)(F)F)c2C#N)c1
Second compound 0.0316 µM
  pIC50: < 6.00
Second compound 0.1 µM
  pIC50: < 6.00
Second compound 0.316 µM
  pIC50: < 6.00
Second compound 1 µM
  pIC50: < 6.00
Second compound 3.16 µM
  pIC50: < 6.00
Second compound 10 µM
  pIC50: < 6.00
[1]
  viability, T/C: 104%
[2]
  viability, T/C: 96.8%
[3]
  viability, T/C: 93.3%
[4]
  viability, T/C: 92.1%
Second compound 0.0316 µM, first compound 0.316 µM
  viability, T/C: 83.7%
Second compound 0.0316 µM, first compound 1 µM
  viability, T/C: 78.9%
[5]
  viability, T/C: 98%
[6]
  viability, T/C: 103%
[7]
  viability, T/C: 107%
[8]
  viability, T/C: 88.3%
Second compound 0.1 µM, first compound 0.316 µM
  viability, T/C: 93.1%
Second compound 0.1 µM, first compound 1 µM
  viability, T/C: 84.1%
[9]
  viability, T/C: 104%
[10]
  viability, T/C: 104%
[11]
  viability, T/C: 85.8%
[12]
  viability, T/C: 95.3%
Second compound 0.316 µM, first compound 0.316 µM
  viability, T/C: 100%
Second compound 0.316 µM, first compound 1 µM
  viability, T/C: 71%
[13]
  viability, T/C: 86.3%
[14]
  viability, T/C: 99.8%
[15]
  viability, T/C: 102%
[16]
  viability, T/C: 102%
Second compound 1 µM, first compound 0.316 µM
  viability, T/C: 93.4%
Second compound 1 µM, first compound 1 µM
  viability, T/C: 75.3%
[17]
  viability, T/C: 94.6%
[18]
  viability, T/C: 105%
[19]
  viability, T/C: 91.7%
[20]
  viability, T/C: 95.4%
Second compound 3.16 µM, first compound 0.316 µM
  viability, T/C: 96.5%
Second compound 3.16 µM, first compound 1 µM
  viability, T/C: 76.8%
[21]
  viability, T/C: 100%
[22]
  viability, T/C: 90.6%
[23]
  viability, T/C: 99.3%
[24]
  viability, T/C: 97.8%
Second compound 10 µM, first compound 0.316 µM
  viability, T/C: 93.5%
Second compound 10 µM, first compound 1 µM
  viability, T/C: 74.3%

## CC[C@@]1(O)C(=O)OCc2c1cc1n(c2=O)Cc2cc3c(CN(C)C)c(O)ccc3nc2-1 + Cc1cccc(N(C)C(=O)C2C(O)CCN2c2nc(C)cc(C(F)(F)F)c2C#N)c1
Second compound 0.0316 µM
  pIC50: < 7.00
Second compound 0.1 µM
  pIC50: < 7.00
Second compound 0.316 µM
  pIC50: < 7.00
Second compound 1 µM
  pIC50: < 7.00
Second compound 3.16 µM
  pIC50: < 7.00
Second compound 10 µM
  pIC50: < 7.00
Second compound 0.0316 µM, first compound 0.000316 µM
  viability, T/C: 94.1%
Second compound 0.0316 µM, first compound 0.001 µM
  viability, T/C: 101%
[1]
  viability, T/C: 96%
[2]
  viability, T/C: 97.2%
[3]
  viability, T/C: 92.2%
[4]
  viability, T/C: 85%
Second compound 0.1 µM, first compound 0.000316 µM
  viability, T/C: 113%
Second compound 0.1 µM, first compound 0.001 µM
  viability, T/C: 105%
[5]
  viability, T/C: 93.7%
[6]
  viability, T/C: 103%
[7]
  viability, T/C: 97.3%
[8]
  viability, T/C: 79.1%
Second compound 0.316 µM, first compound 0.000316 µM
  viability, T/C: 98.1%
Second compound 0.316 µM, first compound 0.001 µM
  viability, T/C: 112%
[9]
  viability, T/C: 94.9%
[10]
  viability, T/C: 89.8%
[11]
  viability, T/C: 84.9%
[12]
  viability, T/C: 83.4%
Second compound 1 µM, first compound 0.000316 µM
  viability, T/C: 104%
Second compound 1 µM, first compound 0.001 µM
  viability, T/C: 96.5%
[13]
  viability, T/C: 93.1%
[14]
  viability, T/C: 93%
[15]
  viability, T/C: 90.3%
[16]
  viability, T/C: 80.9%
Second compound 3.16 µM, first compound 0.000316 µM
  viability, T/C: 96.2%
Second compound 3.16 µM, first compound 0.001 µM
  viability, T/C: 101%
[17]
  viability, T/C: 98.9%
[18]
  viability, T/C: 93.5%
[19]
  viability, T/C: 89.9%
[20]
  viability, T/C: 76.5%
Second compound 10 µM, first compound 0.000316 µM
  viability, T/C: 93.2%
Second compound 10 µM, first compound 0.001 µM
  viability, T/C: 89.4%
[21]
  viability, T/C: 92.8%
[22]
  viability, T/C: 91.6%
[23]
  viability, T/C: 90.3%
[24]
  viability, T/C: 75%

Reference: PubChem BioAssay AID1963841 (Molecular Pharmacology Branch, DTP, NCI, 2024)
